Columns and labels:
Assay in all cases: relative viability (nuclei count vs DMSO), 5 days (fraction); higher = more cells survive
NCI-H522 = test system: NCI-H522
How it was run: (§1)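 A single step with final 0.05% Triton X-100, 1% formaldehyde and 1 ug/ml Hoechst fixed the cells and stained nuclei 5 days after treatment. Lung cancer cell lines in 1536-well plates had been treated by pin tool the day after seeding with one drug alone or a fixed anchor-drug dose plus five library-drug doses (not always all listed) in √10 steps, and nuclei were counted on 4× images. Relative viability is the ratio of nuclei in treated wells to nuclei in vehicle wells, taken as the median of duplicate plates.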

LCLC-103H = test system: LCLC-103H
How it was run: as §1

NCI-H727 = test system: NCI-H727
How it was run: as §1

SK-MES-1 = test system: SK-MES-1
How it was run: as §1

NCI-H1355 = test system: NCI-H1355
How it was run: as §1

NCI-H1915 = test system: NCI-H1915
How it was run: as §1

NCI-H520 = test system: NCI-H520
How it was run: as §1

LXF-289 = test system: LXF-289
How it was run: as §1

PC-14 = test system: PC-14
How it was run: as §1

NCI-H322M = test system: NCI-H322M
How it was run: as §1

NCI-H460 = test system: NCI-H460
How it was run: as §1

NCI-H596 = test system: NCI-H596
How it was run: as §1

RERF-LC-KJ = test system: RERF-LC-KJ
How it was run: as §1

NCI-H1792 = test system: NCI-H1792
How it was run: as §1

NCI-H2347 = test system: NCI-H2347
How it was run: as §1

NCI-H1651 = test system: NCI-H1651
How it was run: as §1

NCI-H3122 = test system: NCI-H3122
How it was run: as §1

NCI-H661 = test system: NCI-H661
How it was run: as §1

NCI-H1755 = test system: NCI-H1755
How it was run: as §1

SW 900 = test system: SW 900
How it was run: as §1

NCI-H441 = test system: NCI-H441
How it was run: as §1

Question: Which results are given for `COc1nc(C)cnc1NS(=O)(=O)c1cccnc1-c1ccc(-c2nnco2)cc1` [Zibotentan] + O=C(c1cc(Cc2n[nH]c(=O)c3ccccc23)ccc1F)N1CCN(C(=O)C2CC2)CC1 [Olaparib] (partner 8 µM)?
Answer: relative viability (NCI-H522; first compound 0.08 µM): 0.65; relative viability (NCI-H522; first compound 0.253 µM): 0.75; relative viability (NCI-H522; first compound 0.8 µM): 0.681; relative viability (NCI-H522; first compound 2.53 µM): 0.703; relative viability (LCLC-103H; first compound 0.08 µM): 0.738; relative viability (LCLC-103H; first compound 0.253 µM): 0.74; relative viability (LCLC-103H; first compound 0.8 µM): 0.696; relative viability (LCLC-103H; first compound 2.53 µM): 0.751; relative viability (NCI-H727; first compound 0.08 µM): 0.712; relative viability (NCI-H727; first compound 0.253 µM): 0.586; relative viability (NCI-H727; first compound 0.8 µM): 0.661; relative viability (NCI-H727; first compound 2.53 µM): 0.868; relative viability (SK-MES-1; first compound 0.08 µM): 0.705; relative viability (SK-MES-1; first compound 0.253 µM): 0.465; relative viability (SK-MES-1; first compound 0.8 µM): 0.68; relative viability (SK-MES-1; first compound 2.53 µM): 0.787; relative viability (NCI-H1355; first compound 0.08 µM): 0.829; relative viability (NCI-H1355; first compound 0.253 µM): 0.691; relative viability (NCI-H1355; first compound 0.8 µM): 0.751; relative viability (NCI-H1355; first compound 2.53 µM): 0.756; relative viability (NCI-H1915; first compound 0.08 µM): 0.31; relative viability (NCI-H1915; first compound 0.253 µM): 0.277; relative viability (NCI-H1915; first compound 0.8 µM): 0.254; relative viability (NCI-H1915; first compound 2.53 µM): 0.24; relative viability (NCI-H520; first compound 0.08 µM): 0.282; relative viability (NCI-H520; first compound 0.253 µM): 0.296; relative viability (NCI-H520; first compound 0.8 µM): 0.252; relative viability (NCI-H520; first compound 2.53 µM): 0.352; relative viability (LXF-289; first compound 0.08 µM): 1.01; relative viability (LXF-289; first compound 0.253 µM): 1; relative viability (LXF-289; first compound 0.8 µM): 1.14; relative viability (LXF-289; first compound 2.53 µM): 1.09; relative viability (PC-14; first compound 0.08 µM): 0.206; relative viability (PC-14; first compound 0.253 µM): 0.271; relative viability (PC-14; first compound 0.8 µM): 0.276; relative viability (PC-14; first compound 2.53 µM): 0.315; relative viability (NCI-H322M; first compound 0.08 µM): 0.758; relative viability (NCI-H322M; first compound 0.253 µM): 0.659; relative viability (NCI-H322M; first compound 0.8 µM): 0.949; relative viability (NCI-H322M; first compound 2.53 µM): 0.727; relative viability (NCI-H460; first compound 0.08 µM): 0.42; relative viability (NCI-H460; first compound 0.253 µM): 0.346; relative viability (NCI-H460; first compound 0.8 µM): 0.322; relative viability (NCI-H460; first compound 2.53 µM): 0.481; relative viability (NCI-H596; first compound 0.08 µM): 0.661; relative viability (NCI-H596; first compound 0.253 µM): 0.595; relative viability (NCI-H596; first compound 0.8 µM): 0.831; relative viability (NCI-H596; first compound 2.53 µM): 0.774; relative viability (RERF-LC-KJ; first compound 0.08 µM): 0.832; relative viability (RERF-LC-KJ; first compound 0.253 µM): 0.802; relative viability (RERF-LC-KJ; first compound 0.8 µM): 0.921; relative viability (RERF-LC-KJ; first compound 2.53 µM): 0.894; relative viability (NCI-H1792; first compound 0.08 µM): 0.235; relative viability (NCI-H1792; first compound 0.253 µM): 0.408; relative viability (NCI-H1792; first compound 0.8 µM): 0.323; relative viability (NCI-H1792; first compound 2.53 µM): 0.373; relative viability (NCI-H2347; first compound 0.08 µM): 0.47; relative viability (NCI-H2347; first compound 0.253 µM): 0.596; relative viability (NCI-H2347; first compound 0.8 µM): 0.635; relative viability (NCI-H2347; first compound 2.53 µM): 0.615; relative viability (NCI-H1651; first compound 0.08 µM): 0.172; relative viability (NCI-H1651; first compound 0.253 µM): 0.191; relative viability (NCI-H1651; first compound 0.8 µM): 0.19; relative viability (NCI-H1651; first compound 2.53 µM): 0.184; relative viability (NCI-H3122; first compound 0.08 µM): 0.625; relative viability (NCI-H3122; first compound 0.253 µM): 0.549; relative viability (NCI-H3122; first compound 0.8 µM): 0.581; relative viability (NCI-H3122; first compound 2.53 µM): 0.608; relative viability (NCI-H661; first compound 0.08 µM): 0.776; relative viability (NCI-H661; first compound 0.253 µM): 0.677; relative viability (NCI-H661; first compound 0.8 µM): 0.791; relative viability (NCI-H661; first compound 2.53 µM): 0.751; relative viability (NCI-H1755; first compound 0.08 µM): 0.893; relative viability (NCI-H1755; first compound 0.253 µM): 0.846; relative viability (NCI-H1755; first compound 0.8 µM): 0.908; relative viability (NCI-H1755; first compound 2.53 µM): 0.907; relative viability (SW 900; first compound 0.08 µM): 0.922; relative viability (SW 900; first compound 0.253 µM): 0.647; relative viability (SW 900; first compound 0.8 µM): 0.853; relative viability (SW 900; first compound 2.53 µM): 0.81; relative viability (NCI-H441; first compound 0.08 µM): 0.549; relative viability (NCI-H441; first compound 0.253 µM): 0.517; relative viability (NCI-H441; first compound 0.8 µM): 0.638; relative viability (NCI-H441; first compound 2.53 µM): 0.576

Reference: the supplement of paper PMC10307832
